Experimental data taken from paper PMC7686313, “Phase 1 study of mTORC1/2 inhibitor sapanisertib (TAK-228) in advanced solid tumours, with an expansion phase in renal, endometrial or bladder cancer” (British Journal of Cancer, 2020).

Test: Safety (adverse events, NCI CTCAE v4.0), dose-escalation phase
[1] = dose-escalation QD × 3dQW 6–20 mg
[2] = dose-escalation QD × 5dQW 7–13 mg

Method: Patients who received ≥1 dose of sapanisertib were included in the safety population. […] Adverse events (AEs) were assessed using the National Cancer Institute Common Terminology Criteria for Adverse Events, v4.0. Patients were provided with a home blood-glucose meter to monitor their fasting predose blood-glucose measurements to assess hyperglycaemia as an on-target AE and PD marker.

CC(C)n1nc(-c2ccc3oc(N)nc3c2)c2c(N)ncnc21 [Sapanisertib]
On-study deaths within 30 days of last dose (both phases): 7 | Acute kidney injury, treatment-related AE (dose-escalation QD 2–7 mg): 1 (3) n (%) | Anaemia, treatment-related AE (dose-escalation QD 2–7 mg): 3 (10) n (%) | Any AE (dose-escalation QD 2–7 mg): 31 (100) n (%) | Any AE resulting in dose modification/interruption (dose-escalation QD 2–7 mg): 22 (71) n (%) | Any AE resulting in treatment discontinuation (dose-escalation QD 2–7 mg): 11 (35) n (%) | Any SAE (dose-escalation QD 2–7 mg): 13 (42) n (%) | Any grade ≥3 AE (dose-escalation QD 2–7 mg): 19 (61) n (%) | Any treatment-related AE (dose-escalation QD 2–7 mg): 31 (100) n (%) | Any treatment-related SAE (dose-escalation QD 2–7 mg): 4 (13) n (%) | Any treatment-related grade ≥3 AE (dose-escalation QD 2–7 mg): 14 (45) n (%) | Asthenia, treatment-related AE (dose-escalation QD 2–7 mg): 6 (19) n (%) | Asthenia, treatment-related grade ≥3 AE (dose-escalation QD 2–7 mg): 1 (3) n (%) | Blood creatinine increased, treatment-related AE (dose-escalation QD 2–7 mg): 7 (23) n (%) | Decreased appetite, treatment-related AE (dose-escalation QD 2–7 mg): 11 (35) n (%) | Dehydration, treatment-related AE (dose-escalation QD 2–7 mg): 3 (10) n (%) | Dehydration, treatment-related grade ≥3 AE (dose-escalation QD 2–7 mg): 0 (0) n (%) | Diarrhoea, treatment-related AE (dose-escalation QD 2–7 mg): 11 (35) n (%) | Diarrhoea, treatment-related grade ≥3 AE (dose-escalation QD 2–7 mg): 1 (3) n (%) | Dry mouth, treatment-related AE (dose-escalation QD 2–7 mg): 5 (16) n (%) | Dysgeusia, treatment-related AE (dose-escalation QD 2–7 mg): 8 (26) n (%) | Dyspepsia, treatment-related AE (dose-escalation QD 2–7 mg): 1 (3) n (%) | Fatigue, treatment-related AE (dose-escalation QD 2–7 mg): 8 (26) n (%) | Fatigue, treatment-related grade ≥3 AE (dose-escalation QD 2–7 mg): 0 (0) n (%) | Headache, treatment-related AE (dose-escalation QD 2–7 mg): 0 (0) n (%) | Hypercholesterolemia, treatment-related AE (dose-escalation QD 2–7 mg): 5 (16) n (%) | Hyperglycaemia, treatment-related AE (dose-escalation QD 2–7 mg): 25 (81) n (%) | Hyperglycaemia, treatment-related grade ≥3 AE (dose-escalation QD 2–7 mg): 6 (19) n (%) | Hypophosphatemia, treatment-related AE (dose-escalation QD 2–7 mg): 0 (0) n (%) | Hypophosphatemia, treatment-related grade ≥3 AE (dose-escalation QD 2–7 mg): 0 (0) n (%) | Lymphopenia, treatment-related grade ≥3 AE (dose-escalation QD 2–7 mg): 2 (6) n (%) | Nausea, treatment-related AE (dose-escalation QD 2–7 mg): 13 (42) n (%) | Nausea, treatment-related grade ≥3 AE (dose-escalation QD 2–7 mg): 0 (0) n (%) | On-study deaths (dose-escalation QD 2–7 mg): 1 (3) n (%) | Pruritus generalised, treatment-related AE (dose-escalation QD 2–7 mg): 8 (26) n (%) | Pruritus generalised, treatment-related grade ≥3 AE (dose-escalation QD 2–7 mg): 2 (6) n (%) | Pruritus, treatment-related AE (dose-escalation QD 2–7 mg): 2 (6) n (%) | Rash maculo-papular, treatment-related AE (dose-escalation QD 2–7 mg): 3 (10) n (%) | Rash maculo-papular, treatment-related grade ≥3 AE (dose-escalation QD 2–7 mg): 2 (6) n (%) | Rash, treatment-related AE (dose-escalation QD 2–7 mg): 8 (26) n (%) | Rash, treatment-related grade ≥3 AE (dose-escalation QD 2–7 mg): 2 (6) n (%) | Stomatitis (includes oropharyngeal pain and mucosal inflammation), treatment-related AE (dose-escalation QD 2–7 mg): 11 (35) n (%) | Stomatitis, treatment-related grade ≥3 AE (dose-escalation QD 2–7 mg): 0 (0) n (%) | Thrombocytopenia, treatment-related grade ≥3 AE (dose-escalation QD 2–7 mg): 2 (6) n (%) | Vomiting, treatment-related AE (dose-escalation QD 2–7 mg): 8 (26) n (%) | Weight decreased, treatment-related AE (dose-escalation QD 2–7 mg): 1 (3) n (%) | Acute kidney injury, treatment-related AE [1]: 0 (0) n (%) | Anaemia, treatment-related AE [1]: 1 (3) n (%) | Any AE [1]: 33 (100) n (%) | Any AE resulting in dose modification/interruption [1]: 21 (64) n (%) | Any AE resulting in treatment discontinuation [1]: 7 (21) n (%) | Any SAE [1]: 17 (52) n (%) | Any grade ≥3 AE [1]: 25 (76) n (%) | Any treatment-related AE [1]: 32 (97) n (%) | Any treatment-related SAE [1]: 9 (27) n (%) | Any treatment-related grade ≥3 AE [1]: 19 (58) n (%) | Asthenia, treatment-related AE [1]: 10 (30) n (%) | Asthenia, treatment-related grade ≥3 AE [1]: 4 (12) n (%) | Blood creatinine increased, treatment-related AE [1]: 2 (6) n (%) | Decreased appetite, treatment-related AE [1]: 17 (52) n (%) | Dehydration, treatment-related AE [1]: 1 (3) n (%) | Dehydration, treatment-related grade ≥3 AE [1]: 1 (3) n (%) | Diarrhoea, treatment-related AE [1]: 13 (39) n (%) | Diarrhoea, treatment-related grade ≥3 AE [1]: 0 (0) n (%) | Dry mouth, treatment-related AE [1]: 2 (6) n (%) | Dysgeusia, treatment-related AE [1]: 4 (12) n (%) | Dyspepsia, treatment-related AE [1]: 1 (3) n (%) | Fatigue, treatment-related AE [1]: 12 (36) n (%) | Fatigue, treatment-related grade ≥3 AE [1]: 0 (0) n (%) | Headache, treatment-related AE [1]: 3 (9) n (%) | Hypercholesterolemia, treatment-related AE [1]: 4 (12) n (%) | Hyperglycaemia, treatment-related AE [1]: 22 (67) n (%) | Hyperglycaemia, treatment-related grade ≥3 AE [1]: 7 (21) n (%) | Hypophosphatemia, treatment-related AE [1]: 5 (15) n (%) | Hypophosphatemia, treatment-related grade ≥3 AE [1]: 3 (9) n (%) | Lymphopenia, treatment-related grade ≥3 AE [1]: 2 (6) n (%) | Nausea, treatment-related AE [1]: 23 (70) n (%) | Nausea, treatment-related grade ≥3 AE [1]: 2 (6) n (%) | On-study deaths [1]: 2 (6) n (%) | Pruritus generalised, treatment-related AE [1]: 6 (18) n (%) | Pruritus generalised, treatment-related grade ≥3 AE [1]: 1 (3) n (%) | Pruritus, treatment-related AE [1]: 1 (3) n (%) | Rash maculo-papular, treatment-related AE [1]: 1 (3) n (%) | Rash maculo-papular, treatment-related grade ≥3 AE [1]: 0 (0) n (%) | Rash, treatment-related AE [1]: 7 (21) n (%) | Rash, treatment-related grade ≥3 AE [1]: 0 (0) n (%) | Stomatitis (includes oropharyngeal pain and mucosal inflammation), treatment-related AE [1]: 23 (70) n (%) | Stomatitis, treatment-related grade ≥3 AE [1]: 5 (15) n (%) | Thrombocytopenia, treatment-related grade ≥3 AE [1]: 0 (0) n (%) | Vomiting, treatment-related AE [1]: 18 (55) n (%) | Weight decreased, treatment-related AE [1]: 2 (6) n (%) | Acute kidney injury, treatment-related AE [2]: 0 (0) n (%) | Anaemia, treatment-related AE [2]: 0 (0) n (%) | Any AE [2]: 22 (100) n (%) | Any AE resulting in dose modification/interruption [2]: 12 (55) n (%) | Any AE resulting in treatment discontinuation [2]: 6 (27) n (%) | Any SAE [2]: 10 (45) n (%) | Any grade ≥3 AE [2]: 14 (64) n (%) | Any treatment-related AE [2]: 21 (95) n (%) | Any treatment-related SAE [2]: 4 (18) n (%) | Any treatment-related grade ≥3 AE [2]: 8 (36) n (%) | Asthenia, treatment-related AE [2]: 9 (41) n (%) | Asthenia, treatment-related grade ≥3 AE [2]: 3 (14) n (%) | Blood creatinine increased, treatment-related AE [2]: 0 (0) n (%) | Decreased appetite, treatment-related AE [2]: 7 (32) n (%) | Dehydration, treatment-related AE [2]: 0 (0) n (%) | Dehydration, treatment-related grade ≥3 AE [2]: 0 (0) n (%) | Diarrhoea, treatment-related AE [2]: 8 (36) n (%) | Diarrhoea, treatment-related grade ≥3 AE [2]: 0 (0) n (%) | Dry mouth, treatment-related AE [2]: 2 (9) n (%) | Dysgeusia, treatment-related AE [2]: 4 (18) n (%) | Dyspepsia, treatment-related AE [2]: 0 (0) n (%) | Fatigue, treatment-related AE [2]: 7 (32) n (%)
